Assay results taken from patent US11389423B2, “Pharmaceutical composition, excipient for the composition and use of the composition” (priority 2018, dated 2022).

Assays:
[1] = test system: Salmonella typhimurium TA100; experiment: AMES test, strain TA100; format: cell-based; conditions: TA100, with (+S9) and without (-S9) metabolic activation, 62.5-375 μg/plate
Excerpt: For the AMES test, the TA 100 and TA 98 strains of Salmonella typhimurium were used. The strain TA 100, which detects mutagens causing base pair replacement in DNA, contains a mutation in the hisG gene (hisG46), which codes for the first histidine biosynthesis enzyme, with the CG pair as the preferred point for reversion. The strain TA 98 has a mutation in the hisD gene to reverse eight repetitive GC residues and detects mutagenic compounds causing the DNA reading frame to shift. According to the methodology of direct incorporation in plates, developed by Maron and Ames (1983), different concentrations of CBD-SINT (375, 250, 125 and 62.5 μg/plate) were mixed with 0.1 mL of the bacteria culture and 2 mL of surface agar (top agar), supplemented with traces of histidine and biotin. For the tests with metabolic activation, 0.5 mL homogenized microsomal fraction S9 of rat liver (post-mitochondrial fraction, supplemented with a cofactor, prepared from the liver of rodents treated with an enzymatic inducing agent, arochloror 1254) (MOLTOX—Molecular Toxicology, USA) were added. As a negative control, double-distilled water (vehicle) was used. As a positive control for TA98, 4-nirophenylenediamine (NPD) dissolved in DMSO was used at a concentration of 10 μg/plate. […] After this period, the number of reversing colonies per plate was counted. […]

[2] = test system: polychromatic erythrocytes; conditions: rats male and female, 500, 1000 and 2000 mg/kg orally
Protocol: To perform the micronucleus test (Schmid, 1976), different groups of rats (male and female; n=10) received three doses of CBD (500, 1000 and 2000 mg/kg) orally. The negative control group received placebo by gavage and the positive control was treated with cyclophosphamide monohydrate (20 mg/kg—Sigma-Aldrich) intraperitoneally. After 24 hours (cyclophosphamide) and 48 hours (CBD-SINT and vehicle) the end of treatments, the animals were euthanized by decapitation. The femurs were removed, the proximal epiphysis was removed to expose the medullary canal and, with the aid of a 13×4.5 mm needle and 3 mL NaCl solution (150 mM), the marrow was removed, washing the medullary canal with NaCl solution. The material was transferred to glass tubes and centrifuged at 1000 rpm/5 min. After centrifugation, the supernatant was discarded, and the deposit was resuspended with a 4% formaldehyde solution and slightly homogenized with the aid of a Pasteur pipette. A drop of this cell suspension was placed on a clean, dry slide, and then the smear was performed. The slides were dried at room temperature and, after 24 hours, stained with Leishman eosin-methylene blue and subjected to microscopic analysis. To determine the number of micronuclei, 2000 polychromatic erythrocytes were counted per animal (1000 in each slide) using an optical microscope, at 400× magnification. The analysis of the slides was blind and performed by a single evaluator.

[3] = test system: rats with MPTP microinfusion into the substantia nigra; experiment: Morris water maze (cued test/memory version), MPTP model; format: in vivo; conditions: 36 and 120 mg/kg orally, day 1 to day 10 after MPTP
Protocol: For the experiments with MPTP (neuroprotection), the animals were divided into the following experimental groups: • MPTP+placebo • MPTP+CBD-SINT 12 mg/kg • MPTP+CBD-SINT 36 mg/kg • MPTP+CBD-SINT 120 mg/kg • Sham+placebo • Naive
CBD-SINT and placebo were administered orally (gavage) for 18 days prior to the administration of the neurotoxin by stereotactic surgery, and for another 10 days after surgery. After the administration of the neurotoxin, the behavioral (locomotor activity) and biochemical (brain dopamine dosage) parameters were evaluated after 24 hours and after 10 days. The memory tests (Morris water maze) were performed daily from day 1 to day 10 after the administration of the neurotoxin (FIG. 13).
The rats were submitted to stereotactic surgery (stereotactic—David Kopf, model 957L) and received bilateral microinfusion of MPTP or 6-OHDA (different groups of rats) directly into the substantia nigra. For surgery, the following stereotaxic coordinates were used: anteroposterior: 5.0 mm from the bregma; mediolateral: ±2.1 mm from the midline and dorsoventral: −7.7 mm from the cranial vault (Paxinos and Watson, 1986). Then, 100 μg MPTP (diluted in 1 μL saline, with a flow of 0.33 μL/min) or 8 μg 6-OHDA (diluted in 2 μL saline with 0.2 μg/μL ascorbic acid, with a flow rate of 0.33 μL/min) were injected. […]

SMILES: C=C(C)[C@@H]1CCC(C)=C[C@H]1c1c(O)cc(CCCCC)cc1O [CBD-SINT, Cannabidiol]
- frequency of reversible mutants with the increase in concentration [1]: no increase
- mutagenicity ratios (MR) [1]: less than 2
- ratio of polychromatic/normochromatic erythrocytes (PCE/NCE ratio) vs placebo [2]: did not cause any significant change
- MNPCE number vs placebo (C-) ([2]; 48 hours): in a similar way to that found for animals treated only with placebo
- latency time to find the platform (memory deficit) [3]: prevented this deficit
